US10981917B2, “Heterocyclic compound, its preparation method, and pharmaceutical composition comprising the same” (Daewoong Pharmaceutical Co., Ltd., priority 2017, dated 2021)

Biological target: PRS (prolyl-tRNA synthetase) protein, PRS portion of EPRS (Homo sapiens (Human), UniProt P07814)
Test: PRS enzyme activity inhibition experiment ([3H]proline, liquid scintillation)
Assay type: biochemical
Settings: purified PRS protein, 37° C. for 5 to 10 minutes
In short: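 Values are % inhibition or IC50 ranges (A ≤100 nM, B 100–500 nM, C ≥500 nM) from [3H]proline incorporation measured by liquid scintillation. PRS portion of human EPRS, reacted 5–10 min at 37 °C in pH 7.4 phosphate buffer containing 5 mM ATP and tRNA, compound at 1 μM.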

Chain of PRS (prolyl-tRNA synthetase) protein, PRS portion of EPRS (P07814 1007-1512): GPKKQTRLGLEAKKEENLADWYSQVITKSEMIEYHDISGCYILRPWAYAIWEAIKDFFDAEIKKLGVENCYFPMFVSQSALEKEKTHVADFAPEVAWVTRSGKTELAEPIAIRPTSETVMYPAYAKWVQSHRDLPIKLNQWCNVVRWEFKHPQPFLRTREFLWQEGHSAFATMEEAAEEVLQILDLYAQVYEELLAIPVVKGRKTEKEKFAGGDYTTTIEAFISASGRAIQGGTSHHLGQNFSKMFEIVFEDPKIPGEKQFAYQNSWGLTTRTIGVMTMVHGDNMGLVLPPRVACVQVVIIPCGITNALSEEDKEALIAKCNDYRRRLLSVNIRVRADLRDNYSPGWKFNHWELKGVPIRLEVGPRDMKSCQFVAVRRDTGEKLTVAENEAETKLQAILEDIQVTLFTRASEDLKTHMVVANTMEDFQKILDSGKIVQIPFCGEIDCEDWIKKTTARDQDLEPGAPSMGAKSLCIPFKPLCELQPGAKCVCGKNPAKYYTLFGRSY

Row | SMILES | IC50 [nM]
1 | COC(=O)c1cn(CCC[C@H]2NCCC[C@@H]2O)c2cccc(Cl)c12 [Example 152, methyl 4-chloro-1-(3-((2R,3S)-3-hydroxypiperidin-2-yl)propyl)-1H-indole-3-carboxylate] | ≥ 500
2 | COC(=O)c1cn(CCC[C@H]2NCCC[C@@H]2O)c2cc(Cl)ccc12 [Example 153, methyl 6-chloro-1-(3-((2R,3S)-3-hydroxypiperidin-2-yl)propyl)-1H-indole-3-carboxylate] | 100 to 500
3 | COC(=O)c1cn(CCC[C@H]2NCCC[C@@H]2O)c2c(Cl)cccc12 [Example 154, methyl 7-chloro-1-(3-((2R,3S)-3-hydroxypiperidin-2-yl)propyl)-1H-indole-3-carboxylate] | 100 to 500
4 | O[C@H]1CCCN[C@@H]1CCCn1nc(-c2cnn(C(F)F)c2)c2cc(Cl)ccc21 [Example 157, (2R,3S)-2-(3-(5-chloro-3-(1-(difluoromethyl)-1H-pyrazol-4-yl)-1H-indazol-1-yl)propyl)piperidin-3-ol] | ≥ 500
5 | O[C@H]1CCCN[C@@H]1CCCn1nc(-c2cnn(C(F)F)c2)c2ccc(Cl)cc21 [Example 158, (2R,3S)-2-(3-(6-chloro-3-(1-(difluoromethyl)-1H-pyrazol-4-yl)-1H-indazol-1-yl)propyl)piperidin-3-ol] | ≥ 500
6 | Cn1c(=O)n(CCC[C@H]2NCCC[C@@H]2O)c2ccccc21 [Example 159, 1-(3-((2R,3S)-3-hydroxypiperidin-2-yl)propyl)-3-methyl-1H-benzo[d]imidazol-2(3H)-one] | ≥ 500
7 | O=c1[nH]c2ccc(Br)cc2n1CCC[C@H]1NCCC[C@@H]1O [Example 161, 6-bromo-1-(3-((2R,3S)-3-hydroxypiperidin-2-yl)propyl)-1H-benzo[d]imidazol-2(3H)-one] | ≥ 500
8 | Cn1c(=O)c2c(ncn2CCC[C@H]2NCCC[C@@H]2O)n(C)c1=O [Example 162, 7-(3-((2R,3S)-3-hydroxypiperidin-2-yl)propyl)-1,3-dimethyl-1H-purine-2,6(3H,7H)-dione] | ≥ 500
9 | Cn1c(=O)[nH]c(=O)c2c1ncn2CCC[C@H]1NCCC[C@@H]1O [Example 163, 7-(3-((2R,3S)-3-hydroxypiperidin-2-yl)propyl)-3-methyl-1H-purine-2,6(3H,7H)-dione] | ≥ 500
10 | CC(C)Cn1c(=O)n(C)c(=O)c2c1ncn2CCC[C@H]1NCCC[C@@H]1O [Example 165, 7-(3-((2R,3S)-3-hydroxypiperidin-2-yl)propyl)-3-isobutyl-1-methyl-1H-purine-2,6(3H,7H)-dione] | ≥ 500

Other lines, results leading:

Row | IC50 [nM] | SMILES
11 | ≥ 500 | O[C@H]1CCCN[C@@H]1CCCn1nc(C2CC2)c2cc(Cl)ccc21 [Example 155, (2R,3S)-2-(3-(5-chloro-3-cyclopropyl-1H-indazol-1-yl)propyl)piperidin-3-ol]
12 | ≥ 500 | O[C@H]1CCCN[C@@H]1CCCn1nc(C(F)(F)F)c2cc(Cl)ccc21 [Example 156, (2R,3S)-2-(3-(5-chloro-3-(trifluoromethyl)-1H-indazol-1-yl)propyl)piperidin-3-ol]
13 | ≥ 500 | O=c1[nH]c2cc(Br)ccc2n1CCC[C@H]1NCCC[C@@H]1O [Example 160, 5-bromo-1-(3-((2R,3S)-3-hydroxypiperidin-2-yl)propyl)-1H-benzo[d]imidazol-2(3H)-one]
14 | ≥ 500 | Cn1c(=O)[nH]c2c(ncn2CCC[C@H]2NCCC[C@@H]2O)c1=O [Example 164, 9-(3-((2R,3S)-3-hydroxypiperidin-2-yl)propyl)-1-methyl-1H-purine-2,6(3H,9H)-dione]
15 | 100 to 500 | O[C@H]1CCCN[C@@H]1/C=C/Cn1cnc2cc(Cl)c(Cl)cc21 [Example 166, (2R,3S)-2-((E)-3-(5,6-dichloro-1H-benzo[d]imidazol-1-yl)prop-1-enyl)piperidin-3-ol]
16 | 100 to 500 | Cc1c(F)ccc2c1ncn2C/C=C/[C@H]1NCCC[C@@H]1O [Example 167, (2R,3S)-2-((E)-3-(5-fluoro-4-methyl-1H-benzo[d]imidazol-1-yl)prop-1-enyl)piperidin-3-ol]
